Experimental findings from US20150065440A1 (Progen Pharmaceuticals Limited, priority 2007, published 2015) are described below.

Each structure is given as a SMILES string. Structures can show the parent of a compound that is named as a salt. Where two headings read alike, the source gives them in different places.

One experiment concerns the target T1, VEGF (Homo sapiens, UniProt P15692).
T1 sequence (P15692 207-395): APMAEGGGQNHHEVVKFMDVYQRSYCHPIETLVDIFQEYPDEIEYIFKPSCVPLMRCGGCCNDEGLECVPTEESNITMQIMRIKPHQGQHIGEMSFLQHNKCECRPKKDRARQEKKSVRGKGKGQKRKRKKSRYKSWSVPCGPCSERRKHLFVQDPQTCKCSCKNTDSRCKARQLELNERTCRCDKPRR
Description: Growth factor binding assay (SPR solution affinity), VEGF. The note with it: HBS-EP buffer, 25° C. As for the experimental part: (§1) Binding affinities of compounds for the growth factors FGF-1, FGF-2 and VEGF were measured using a surface plasmon resonance (SPR) based solution affinity assay.^9 Heparin-coated sensorchips used for this assay were prepared via immobilisation of biotinylated BSA-heparin on a streptavidin-coated sensorchip, or via aldehyde coupling using either adipic acid dihydrazide or 1,4-diaminobutane.^9 For each Kd measurement, solutions were prepared containing a fixed concentration of protein and varying concentrations of the ligand in buffer. Ligands binding to FGF-1 and VEGF were measured in HBS-EP buffer (10 mM HEPES, pH 7.4, 150 mM NaCl, 3.0 mM EDTA and 0.005% (v/v) polysorbate 20), while binding to FGF-2 was measured in HBS-EP buffer containing 0.3 M NaCl. Prior to injection, samples were maintained at 4° C. to maximise protein stability. For each assay mixture, 50-200 μL of solution was injected at 5-40 μL/min and the relative binding response measured. All surface binding experiments were performed at 25° C. The surface was regenerated by injection of 40 μL of 4M NaCl at 40 μL/min, followed by injection of 40 μL of buffer at 40 μL/min.
(§2) Sensorgram data were analysed using the BIAevaluation software (BIAcore) and Kd values determined as previously described.^9 Where Kd values were measured in duplicate, the values represent the average of the duplicate measurements.

The target of another experiment is FGF-1 (Homo sapiens, UniProt P05230). Description: Growth factor binding assay (SPR solution affinity), FGF-1. The protocol:
as §1, §2

The target of a further experiment is FGF-2 (Homo sapiens, UniProt P09038). In words: Growth factor binding assay (SPR solution affinity), FGF-2. The note with it: SPR, HBS-EP buffer containing 0.3 M NaCl, 25° C.; read-out: Kd FGF-2. The protocol: as §1, §2
Chain of FGF-2 (P09038 143-288, species assumed): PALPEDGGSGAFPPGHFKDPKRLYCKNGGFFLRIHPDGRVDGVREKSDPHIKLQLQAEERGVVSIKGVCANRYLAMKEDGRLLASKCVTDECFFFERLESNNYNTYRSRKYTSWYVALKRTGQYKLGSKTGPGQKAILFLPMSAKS
Experiment [1] deals with pooled normal human plasma. In words: Anticoagulant activity, APTT. To be noted: 0.1 mg/mL in normal pooled human plasma. As for the experimental part: APTT measurements were performed on a STAGO STA-Compact Coagulation Analyser using standard protocols according to the manufacturer's instructions. Unfractionated heparin (UFH) was used as a control.
Experiment [2] relates to normal pooled human plasma. Description: Anticoagulant activity, Heptest. The note with it: 0.1 mg/mL in normal pooled human plasma.
Experiment [3] has as its target T2, recombinant human heparanase (Homo sapiens, UniProt Q9Y251).
T2 sequence (Q9Y251 158-543 limits assumed): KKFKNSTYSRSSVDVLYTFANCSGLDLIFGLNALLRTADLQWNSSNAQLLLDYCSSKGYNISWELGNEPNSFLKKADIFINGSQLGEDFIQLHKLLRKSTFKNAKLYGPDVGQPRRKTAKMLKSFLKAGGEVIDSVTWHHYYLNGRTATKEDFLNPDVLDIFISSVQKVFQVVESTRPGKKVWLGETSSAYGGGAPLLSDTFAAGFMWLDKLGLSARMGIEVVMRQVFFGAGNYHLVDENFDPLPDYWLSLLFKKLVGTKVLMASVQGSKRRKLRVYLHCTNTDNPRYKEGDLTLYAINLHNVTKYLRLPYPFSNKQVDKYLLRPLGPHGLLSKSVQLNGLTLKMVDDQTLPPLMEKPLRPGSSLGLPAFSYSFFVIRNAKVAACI
T2 sequence (Q9Y251 36-109 limits assumed): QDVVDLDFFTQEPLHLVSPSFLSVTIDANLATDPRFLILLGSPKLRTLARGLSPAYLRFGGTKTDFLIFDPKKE
In words: Heparanase inhibition assay (fondaparinux cleavage, WST-1). To be noted: read-out: Ki Heparanase; IC50 converted into Ki; fondaparinux 100 μM, pH 5.0.

Another experiment relates to HSV-2. Description: Viral plaque number-reduction assay, HSV-2. To be noted: Human alphaherpesvirus 2, read-out: HSV-2 IC50. As for the experimental part: (§3) African green monkey kidney (GMK AH1) cells^46 were cultured in Eagle's minimum essential medium (EMEM) supplemented with 2% calf serum, 0.05% Primaton RL substance (Kraft Inc., Norwich, USA) and antibiotics. Human epidermoid carcinoma (HEp-2) cells were cultured in Dulbecco's modified EMEM (DMEM) supplemented with 10% fetal calf serum and antibiotics. […] The RSV strain A-2^50 was used. The RSV stock was prepared as described by Hallak et al.^51 and stored at −70° C. in the presence of 40% sucrose^52.
(§4) The viral infectivity (the plaque number-reduction) assay and the plaque size-reduction assay were carried out as described previously^17. […] Subsequently, the cells were washed with 2 mL of EMEM and overlaid with 1% methylcellulose solution in EMEM. The plaques were visualized by staining with crystal violet solution after 2 (HSV-2) or 3 (HSV-1) days of incubation at 37° C. […] When the compounds were screened for anti-HSV or anti-RSV activity, mixtures of 200 PFU of the virus and the test compound (100 μg/mL) in serum-free EMEM were incubated for 10 min at room temperature before addition to cells and during the entire period of viral infection of cells and the development of viral plaques. In the plaque size-reduction assay, the compounds were added to cells (in methylcellulose overlay medium) after 2 h period of virus infection of cells in the absence of the inhibitor. After 2-3 days of incubation at 37° C., the viral plaques were visualized by staining the cells with 1% solution of crystal violet. For each compound tested, the images of twenty neighboring plaques were captured using a Leica DC300 digital camera attached to a Leitz-Wetzlar Diavert microscope. The area of each plaque was determined using IM500 image software (Leica). Similar protocols were used for RSV, except that the assays were performed in HEp-2 cells and DMEM supplemented with 2% heat-inactivated fetal calf serum was used instead of EMEM.

For the next experiment, the system named is RSV. Description: Viral plaque number-reduction assay, RSV. The note with it: human respiratory syncytial virus, read-out: RSV IC50. As for the experimental part:
as §3, §4

Where [4] appears, read: SPR, HBS-EP buffer, 25° C., read-out: Kd FGF-1.

Chain of FGF-1 (P05230 whole entry, species assumed): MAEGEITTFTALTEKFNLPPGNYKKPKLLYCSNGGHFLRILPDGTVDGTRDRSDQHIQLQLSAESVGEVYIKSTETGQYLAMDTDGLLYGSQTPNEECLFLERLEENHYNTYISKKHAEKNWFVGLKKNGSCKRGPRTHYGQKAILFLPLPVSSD

In the case of `CC(C)CCCC(C)C1CCC2C3CCC4CC(OCc5cn(CCCOC6OC(COS(=O)(=O)O)C(OS(=O)(=O)O)C(OS(=O)(=O)O)C6OC6OC(COS(=O)(=O)O)C(OS(=O)(=O)O)C(OC7OC(COS(=O)(=O)O)C(OS(=O)(=O)O)C(OS(=O)(=O)O)C7OS(=O)(=O)O)C6OS(=O)(=O)O)nn5)CCC4(C)C3CCC12C` [Compound 48, 3-{4-(Cholestan-3β-yl-oxymethyl)-[1,2,3]triazol-1-yl}propyl 2,3,4,6-tetra-O-sodium sulfonato-α-D-mannopyranosyl-(1→3)-2,4,6-tri-O-sodium sulfonato-α-D-mannopyranosyl-(1→2)-3,4,6-tri-O-sodium sulfonato-α-D-mannopyranoside], the Kd on VEGF came to 460 ± 30 nM; at FGF-1 (setting [4]), 22.6 ± 1 nM; at FGF-2, 480 ± 40 nM. The same compound came in with an APTT in experiment [1] of 73.3 s. The Heptest in experiment [2] is recorded as 33.1 s. The Ki in experiment [3] turned out to be 8.5 ± 0.14 nM.
On to `CC(C)CCCC(C)C1CCC2C3CCC4CC(OCc5cn(C6OC(COS(=O)(=O)O)C(OC7OC(COS(=O)(=O)O)C(OC8OC(COS(=O)(=O)O)C(OS(=O)(=O)O)C(OS(=O)(=O)O)C8OS(=O)(=O)O)C(OS(=O)(=O)O)C7OS(=O)(=O)O)C(OS(=O)(=O)O)C6OS(=O)(=O)O)nn5)CCC4(C)C3CCC12C` [Compound 76, 4-(Cholestan-3β-yl-oxymethyl)[1,2,3]triazol-1-yl 2,3,4,6-tetra-O-sodium sulfonato-α-D-glucopyranosyl-(1→4)-2,3,6-tri-O-sodium sulfonato-α-D-glucopyranosyl-(1→4)-1-deoxy-2,3,6-tri-O-sodium sulfonato-β-D-glucopyranoside], for which the results for the Kd at VEGF, at FGF-1 (setting [4]) and at FGF-2 were 790 ± 230 nM, 50 ± 8 nM and 610 ± 60 nM, respectively. Moreover, in experiment [1], the APTT was 61.2 s. Besides, the Heptest in experiment [2] is recorded as 30.2 s. For the same compound, the Ki in experiment [3] was 16 ± 4 nM.
`CC(=O)OC1CC2C(CCC3CC(OS(=O)(=O)O)CCC32C)C2CCC(C(C)CCC(=O)NC3OC(COS(=O)(=O)O)C(OC4OC(COS(=O)(=O)O)C(OC5OC(COS(=O)(=O)O)C(OC6OC(COS(=O)(=O)O)C(OS(=O)(=O)O)C(OS(=O)(=O)O)C6OS(=O)(=O)O)C(OS(=O)(=O)O)C5OS(=O)(=O)O)C(OS(=O)(=O)O)C4OS(=O)(=O)O)C(OS(=O)(=O)O)C3OS(=O)(=O)O)C12C` [Compound 83, N-(2,3,4,6-tetra-O-sodiumsulfonato-α-D-glucopyranosyl-(1→4)-2,3,6-tri-O-sodiumsulfonato-α-D-glucopyranosyl-(1→4)-2,3,6-tri-O-sodiumsulfonato-α-D-glucopyranosyl-(1→4)-2,3,6-tri-O-sodiumsulfonato-β-D-glucopyranosyl)-4-((3R,10S,12S,13R)-3-O-sodiumsulfonato-12-O-acetyl-10,13-dimethylhexadecahydro-1H-cyclopenta[a]phenanthren-17-yl)pentanamide]: the results for the Kd on VEGF, at FGF-1 (setting [4]) and on FGF-2 were 7.95 ± 0.07 nM, 1.25 ± 0.07 nM and 50 ± 4 nM, respectively. For the same compound, the APTT in experiment [1] is on record as 41.0 s. In experiment [2], this compound gave a Heptest of 26.8 s. Also, in experiment [3], the Ki was determined as 20 ± 5 nM.
For the compound `CC(C)CCCC(C)C1CCC2C3CCC4CC(OC5OC(COS(=O)(=O)O)C(OC6OC(COS(=O)(=O)O)C(OC7OC(COS(=O)(=O)O)C(OS(=O)(=O)O)C(OS(=O)(=O)O)C7OS(=O)(=O)O)C(OS(=O)(=O)O)C6OS(=O)(=O)O)C(OS(=O)(=O)O)C5OS(=O)(=O)O)CCC4(C)C3CCC12C` [Compound 87, 3β-Cholestanyl 2,3,4,6-tetra-O-sodium sulfonato-α-D-glucopyranosyl-(1→4)-2,3,6-tri-O-sodium sulfonato-α-D-glucopyranosyl-(1→4)-2,3,6-tri-O-sodium sulfonato-β-D-glucopyranoside], the figures for the Kd at VEGF, on FGF-1 (setting [4]) and at FGF-2 were 190 ± 60 nM, 24.8 ± 2.3 nM and 547 ± 50 nM, respectively. For the same compound, the APTT in experiment [1] was determined as 51.6 s. The same compound yielded a Heptest in experiment [2] of 29.2 s. For the same compound, the inhibitory constant (Ki) in experiment [3] is 9.1 ± 2.5 nM.
Take `CC(C)CCC[C@@H](C)[C@H]1CC[C@H]2[C@@H]3CCC4CC(O[C@@H]5O[C@H](COS(=O)(=O)O)[C@@H](O[C@@H]6O[C@H](COS(=O)(=O)O)[C@H](OS(=O)(=O)O)[C@H](OS(=O)(=O)O)[C@H]6OS(=O)(=O)O)[C@H](OS(=O)(=O)O)[C@H]5OS(=O)(=O)O)CC[C@]4(C)[C@H]3CC[C@]12C` (stereo partly drawn) [Compound 112, 3′-Cholestanyl 2,3,4,6-tetra-O-sulfo-β-D-galactopyranosyl-(1→4)-2,3,6-tri-O-sulfo-β-D-glucopyranoside, heptasodium salt]: the Kd was 430 ± 140 nM on VEGF, 900 ± 150 nM at FGF-1 and 2100 ± 300 nM on FGF-2. Also, the APTT in experiment [1] was found to be 38.9 s. Moreover, the Heptest in experiment [2] is listed as 25.4 s. Moreover, the IC50 in the experiment on HSV-2 turned out to be 0.45 µg/mL; with RSV, 2.4 µg/mL.

What is called Kd is the constant that tells how readily two partners part at equilibrium. As a reminder, the Ki is the dissociation constant of the complex between target and ligand, obtained from inhibition or displacement. Usually IC50 stands for the concentration at which inhibition is half-maximal.
